One assay concerns HT-29 cells. Briefly: Smac mimetic plus pan-caspase inhibitor induced necrosis in HT-29 cells. The format is cell-based, human. As to conditions: for cell death of HT-29 cells: Smac mimetic plus z-VAD or Q-VD-OPH co-treatment. The procedure: To verify that cell death seen in HT-29 cells was indeed necrosis, cells treated with either vehicle DMSO, or Smac mimetic plus z-VAD, were analyzed by electron microscopy (EM). […] No obvious apoptotic morphological changes were observed.
Since Smac mimetic induces apoptosis in certain tumor lines as a result of autocrine TNF-α (Petersen et al., 2007; Vince et al., 2007; Varfolomeev et al., 2007), we checked whether autocrine TNF-α is required for the observed necrosis in HT-29 cells. […] Moreover, exogenously added TNF-α augmented Smac mimetic plus z-VAD induced cell death and it did so in a dose dependent manner.

Another assay deals with L929 cells. Briefly: Necrotic cell death in L929 cells. The format is cell-based, mouse. The source says: TNF-α induced necrosis has been most extensively studied in mouse fibrosarcoma L929 cells due to its unique ability to undergo necrosis in response to TNF-α, or z-VAD alone (Grooten et al., 1993; Vercammen et al., 1998; Degterev et al., 2005; Kim et al., 2007). To test whether RIP3 is required for necrosis this L929 cells, we knocked down RIP3 with three individual mouse siRNA oligoes. Cell death induced by z-VAD, or TNF-α alone or combination of the two was attenuated when RIP3 was knocked down in L929 cells. The efficacy of necrosis blockage of these oligoes correlated perfectly with the efficiency of RIP3 knockdown.

Another assay deals with T1, cIAP2 (Homo sapiens, UniProt Q13489).
T1 construct: endogenous in cells; host or cells: HT-29
Nature of the assay: cIAP2 degradation upon Smac mimetic treatment in HT-29 cells. The format is cell-based.

The next assay has as its system certain tumor cell lines. As to conditions: cited from earlier work.
Assay [1] deals with RIPK1/FADD/caspase-8 complex (Homo sapiens, UniProt Q13546). Nature of the assay: Caspase-8 immunoprecipitation of RIPK1/FADD/caspase-8/RIP3 complex in HT-29 cells. The settings on record: co-treatment, anti-caspase-8 immunoprecipitation. It counts as cell-based. The protocol: Since RIPK1 forms a complex with caspase-8/FADD upon treatment with TNF-α plus Smac mimetic and the complex is stabilized with z-VAD (Petersen et al., 2007; Wang et al., 2008), we wondered whether it is the same complex that recruits RIP3. To check that directly, we immuno-precipitated caspase-8 and analyzed the composition of the immuno-complex by Western blotting. […] RIP3 continued to be recruited to the complex for up to 6 hours of treatment. Much less proteins were immuno-precipitated at 8 hours with this anti-caspase-8 antibody. This observation might reflect that a large percentage of cells were dying. […] This is consistent with the notion that Necrostatin-1 inhibits RIPK1 kinase activity, which is required for the formation of RIPK1/FADD/caspase-8 complex (Degterev et al., 2008; Wang et al., 2008).

The target in a further assay is RIP3/RIPK1 (Homo sapiens, UniProt Q13546). Nature of the assay: RIP3 up-shift and RIPK1 co-immunoprecipitation in HT-29 cells under necrosis induction. It counts as cell-based. The settings on record: co-treatment during necrosis induction (TNF-α, Smac mimetic, z-VAD). The procedure: To test whether endogenous RIP3 indeed interacts with RIPK1 upon necrosis induction, we treated HT-29 cells with TNF-α, Smac mimetic and z-VAD, followed by immuno-precipitation using an anti-RIPK1 antibody at different time points. […] Correlating with the shift, RIP3 was found in the RIPK1 immuno-complex starting at 4 hours of necrosis induction and peaked at 8 hours. The up-shift of RIP3 and its interaction with RIPK1 only occurred under necrosis-inducing conditions. The observed up-shift of RIP3 is most likely due to phosphorylation that depends on its own kinase activity. […] Moreover, the RIP3 band can be shifted down to the original position on SDS-PAGE gel with phosphatase treatment.
To further confirm the relevance of RIP3 up-shift and its induced interaction with RIPK1 to necrosis, HT-29 cells were co-treated with Necrostatin-1 during necrosis induction.

In a further assay the test system is T98G cells. Nature of the assay: Necrosis induction in T98G cells ectopically expressing RIP3. It counts as cell-based, human. The settings on record: T98G cells expressing wild type RIP3, necrosis induction. The text has this: Since cells resistant to TNF-α induced necrotic death are also defective in RIP3 expression, we then tested whether ectopic expression of RIP3 converts these cells to sensitive ones. When wild type RIP3 was expressed in T98G cells, we saw marked cell death in these cells upon necrosis induction compared to vector transfection controls. […] Moreover, T98G cell death resulted from RIP3 expression was blocked by the necrosis inhibitor, Necrostatin-1. Similar effects were observed when RIP3 was expressed in HeLa cells, MCF-7 cells, and H2009 cells.

RIP3/RIPK1, sequence (Q13546 whole entry): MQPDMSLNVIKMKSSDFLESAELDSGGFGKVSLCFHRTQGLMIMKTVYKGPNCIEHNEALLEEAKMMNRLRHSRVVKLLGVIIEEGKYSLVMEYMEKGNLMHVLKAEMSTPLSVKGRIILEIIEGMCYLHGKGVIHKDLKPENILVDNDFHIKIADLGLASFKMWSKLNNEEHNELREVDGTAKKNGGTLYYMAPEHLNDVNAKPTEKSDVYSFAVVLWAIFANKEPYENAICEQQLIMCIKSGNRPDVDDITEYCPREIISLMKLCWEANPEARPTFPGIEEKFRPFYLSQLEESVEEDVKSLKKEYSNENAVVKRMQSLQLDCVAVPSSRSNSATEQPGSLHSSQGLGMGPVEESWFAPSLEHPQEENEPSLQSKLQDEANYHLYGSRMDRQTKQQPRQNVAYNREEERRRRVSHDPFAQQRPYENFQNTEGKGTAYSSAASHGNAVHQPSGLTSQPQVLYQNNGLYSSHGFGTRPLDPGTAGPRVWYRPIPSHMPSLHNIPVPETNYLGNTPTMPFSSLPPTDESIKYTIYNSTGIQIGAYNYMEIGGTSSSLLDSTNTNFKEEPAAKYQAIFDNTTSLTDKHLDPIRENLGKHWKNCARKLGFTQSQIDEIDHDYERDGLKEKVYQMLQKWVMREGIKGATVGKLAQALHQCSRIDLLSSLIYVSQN
T1 sequence (Q13489 whole entry): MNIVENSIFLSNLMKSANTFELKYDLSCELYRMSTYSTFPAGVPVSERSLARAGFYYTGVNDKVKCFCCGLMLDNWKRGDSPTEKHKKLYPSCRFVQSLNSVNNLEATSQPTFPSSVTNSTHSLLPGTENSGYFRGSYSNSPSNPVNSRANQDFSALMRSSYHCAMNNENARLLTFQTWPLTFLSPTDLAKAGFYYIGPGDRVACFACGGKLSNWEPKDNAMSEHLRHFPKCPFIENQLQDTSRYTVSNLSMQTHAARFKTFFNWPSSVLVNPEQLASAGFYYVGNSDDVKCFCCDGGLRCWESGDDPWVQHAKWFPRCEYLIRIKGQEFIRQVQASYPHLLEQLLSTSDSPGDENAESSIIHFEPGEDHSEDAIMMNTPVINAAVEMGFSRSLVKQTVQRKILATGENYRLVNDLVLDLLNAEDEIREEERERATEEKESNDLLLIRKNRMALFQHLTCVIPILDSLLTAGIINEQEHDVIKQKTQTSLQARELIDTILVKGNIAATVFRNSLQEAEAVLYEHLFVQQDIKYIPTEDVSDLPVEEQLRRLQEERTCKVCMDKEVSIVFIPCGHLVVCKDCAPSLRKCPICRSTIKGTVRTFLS
RIPK1/FADD/caspase-8 complex, sequence (Q13546 whole entry, one chain of several): as the sequence (Q13546 whole entry) above

With `CN[C@@H](C)C(=O)N[C@H](C(=O)N1CCC[C@H]1Cn1nnnc1Sc1ccccc1)C(C)OCC#CC#CCO[C@H](C)[C@H](NC(=O)[C@H](C)NC)C(=O)N1CCCC1Cn1nnnc1Sc1ccccc1` (stereo partly drawn) [Smac mimetic], in the assay on HT-29 cells, the “cell death of HT-29 cells” value is “exacerbated cell death”. Besides, the “cell death in L929 cells” value in the assay with L929 cells is on record as “accelerated cell death”. Besides, the cIAP2 degradation result at cIAP2 is reported as “accelerated degradation”.
With z-VAD, the “effect on Smac mimetic induced apoptotic death” value with certain tumor cell lines is on record as “completely blocked”. Further, in the assay with HT-29 cells, the “cell death of HT-29 cells” value was “exacerbated cell death”.
For the compound TNF-α, the “effect of exogenously added TNF-α on Smac mimetic plus z-VAD induced cell death” value in the assay on HT-29 cells (HT-29 cells) was “augmented”.
On to `CN1C(=O)C(Cc2c[nH]c3ccccc23)NC1=S` (stereo not drawn) [Necrostatin-1], for which, in the assay with HT-29 cells (HT-29 cells, agent added to culture), the “effect on Smac mimetic plus z-VAD induced cell death” value is listed as “cell death was prevented”. Moreover, the “formation of RIPK1/FADD/caspase-8 (RIP3) complexes” value in assay [1] is listed as “none of these complexes were able to form efficiently”. On RIP3/RIPK1, the “RIP3 interaction with RIPK1” value is given as “completely prevented” and the RIP3 up-shift entry is listed as “completely prevented”. In addition, the “effect on T98G cell death resulting from RIP3 expression” value in the assay on T98G cells is recorded as “blocked”.
For Q-VD-OPH, in the assay on HT-29 cells, the “cell death of HT-29 cells” value is listed as “exacerbated cell death”.

The values above are taken from patent US7622106B1, “Necrosis assay” (Board of Regents, The University of Texas System, priority 2009, dated 2009).
